Patent US7094911B2, “Biphenyl and biphenyl-analogous compounds as integrin antagonists” (Bayer Aktiengesellschaft, priority 1998, dated 2006)

Row | melting point | Compound
1 | 220 °C | Cc1cc(C)c(S(=O)(=O)N[C@@H](Cc2ccc(-c3cccc(NC(=O)Nc4nc5ccc(C)cc5s4)c3)cc2)C(=O)O)c(C)c1 [Example 1.199]
2 | > 240 °C | COc1ccc2[nH]/c(=N\C(=O)Nc3cccc(-c4ccc(OC)c(S(=O)(=O)NC(CC(=O)O)c5ccccc5)c4)c3)[nH]c2c1 (centres unmarked) [Example 4.105]
3 | 134 °C | CCNC(=O)Nc1ccc(-c2ccc(OC)c(S(=O)(=O)NC(CC(=O)O)c3ccccc3)c2)cc1 (centres unmarked) [Example 4.71]
4 | > 240 °C | COc1ccc(-c2cccc(NC(=O)NCCSC(F)(F)F)c2)cc1S(=O)(=O)NC(CC(=O)O)c1ccccc1 (centres unmarked) [Example 4.101]
5 | > 240 °C | COc1ccc(-c2cccc(NC(=O)N=c3[nH]c4cc(C)c(C)cc4[nH]3)c2)cc1S(=O)(=O)NC(CC(=O)O)c1ccccc1 (centres unmarked) [Example 4.104]
6 | 224 °C (dec.) | COc1ccc(-c2cccc(NC(=O)NCc3cccnc3)c2)cc1S(=O)(=O)N[C@H](CC(=O)O)c1ccccc1 [Example 4.89]
7 | 191 °C (dec.) | O=C(O)CC(NS(=O)(=O)c1cccc(-c2cccc(Nc3c(Nc4nc5ccccc5[nH]4)c(=O)c3=O)c2)c1)c1ccccc1 (centres unmarked) [Example 13.6]
8 | > 240 °C | O=C(O)[C@H](Cc1ccc(-c2cccc(CNc3ccccn3)c2)cc1)NS(=O)(=O)Cc1ccc(F)cc1 [Example 18.10]
9 | 149 °C (dec.) | O=C(O)CC(NS(=O)(=O)c1cccc(-c2cccc(Nc3c(NCc4ccccn4)c(=O)c3=O)c2)c1)c1ccccc1 (centres unmarked) [Example 13.8]
10 | 185 °C (dec.) | C#CCN/C(=C\[N+](=O)[O-])Nc1cccc(-c2ccc(C[C@H](NS(=O)(=O)CC34CC[C@@H](CC3=O)C4(C)C)C(=O)O)cc2)c1 [Example 12.6]
11 | 150 °C | COc1ccc(-c2ccc(NC(=O)NCc3ccccc3)cc2)cc1S(=O)(=O)NC(CC(=O)O)c1ccccc1 (centres unmarked) [Example 4.70]
12 | 152 °C | CC1(C)[C@H]2CCC1(CS(=O)(=O)N[C@@H](Cc1ccc(-c3cccc(NC4=C(NC5CC5)C(=O)C4O)c3)cc1)C(=O)O)C(=O)C2 (some centres unmarked) [Example 13.5]
13 | 189 °C | O=C(O)C[C@@H](NS(=O)(=O)c1cccc(-c2cccc(NC(=O)N=c3[nH]c4ccccc4[nH]3)c2)c1)c1ccccc1 [Example 4.91]
14 | > 240 °C | O=C(O)[C@H](Cc1ccc(-c2cccc(CNc3ccccn3)c2)cc1)NS(=O)(=O)c1ccc(Cl)s1 [Example 18.14]
15 | 90 °C | N#C/N=C(\NCc1ccccc1)Nc1cccc(-c2cccc(S(=O)(=O)NC(CC(=O)O)c3ccccc3)c2)c1 (centres unmarked) [Example 10.1.5, 3-[(3′-{[(benzylamino)(cyanoimino)methyl]amino}[1,1′-biphenyl]-3-yl)sulfonylamino]-3-phenyl-propanoic acid]
16 | 178 °C | CC1(C)[C@H]2CCC1(CS(=O)(=O)N[C@@H](Cc1ccc(-c3cccc(N/C(=N/C#N)NC4CC4)c3)cc1)C(=O)O)C(=O)C2 [Example 10.5]
17 | 126 °C | CCCNC(=O)Nc1cccc(-c2cccc(S(=O)(=O)N[C@H](C)C(=O)O)c2)c1 [Example 4.81]
18 | 116 °C | CCCNC(=O)Nc1ccc(-c2ccc(OC)c(S(=O)(=O)NC(CC(=O)O)c3ccccc3)c2)cc1 (centres unmarked) [Example 4.98]
19 | 90 °C | CCCNC(=O)Nc1cccc(-c2cccc(S(=O)(=O)N(C)CC(=O)O)c2)c1 [Example 6.12]
20 | 180 °C (dec.) | Cc1cc(C)c(S(=O)(=O)N[C@@H](Cc2ccc(-c3cccc(Nc4n[s+]([O-])nc4NC4CC4)c3)cc2)C(=O)O)c(C)c1 (stereo partly drawn) [Example 17.1.3, (2S)-2-[(Mesitylsulfonyl)amino]-3-(3′-{[4-(cyclopropylamino)-1-oxo-1H-1[lambda]4,2,5-thiadiazol-3-yl]amino}[1,1′-biphenyl]-4-yl)-propanoic acid]
21 | 214 °C (dec.) | O=C(O)CC(NS(=O)(=O)c1cccc(-c2cccc(Nc3c(NC4CC4)c(=O)c3=O)c2)c1)c1ccccc1 (centres unmarked) [Example 13.7]

Row | melting point | Compound
22 | 137 °C | COc1ccc(-c2ccc(NC(=O)NCCc3ccccn3)cc2)cc1S(=O)(=O)NC(CC(=O)O)c1ccccc1 (centres unmarked) [Example 4.64]
23 | 188 °C | Cc1cc(C)c(S(=O)(=O)NC(Cc2cccc(-c3ccc(NC(=O)Nc4ccncc4)cc3)c2)C(=O)O)c(C)c1 (centres unmarked) [Example 1.201]
24 | 126 °C (dec.) | CC1(C)[C@H]2CCC1(CS(=O)(=O)N[C@@H](Cc1ccc(-c3cccc(N/C(=C/[N+](=O)[O-])NCc4ccccn4)c3)cc1)C(=O)O)C(=O)C2 [Example 12.7]
25 | 219 °C (dec.) | O=C(O)CC(NS(=O)(=O)c1cccc(-c2cccc(Nc3c(NCC(F)(F)F)c(=O)c3=O)c2)c1)c1cccnc1 (centres unmarked) [Example 13.11]
26 | > 240 °C | O=C(O)[C@H](Cc1ccc(-c2cccc(CNc3ccccn3)c2)cc1)NS(=O)(=O)C1CC1 [Example 18.11]
27 | > 240 °C | O=C(O)[C@H](Cc1ccc(-c2cccc(CNc3ccccn3)c2)cc1)NS(=O)(=O)c1ccc(F)cc1 [Example 18.8]
28 | 188 °C | COc1ccc(-c2ccc(NC(=O)Nc3cccnc3)cc2)cc1S(=O)(=O)NC(CC(=O)O)c1ccccc1 (centres unmarked) [Example 4.75]
29 | 180 °C | Cc1cc(C)c(S(=O)(=O)N[C@@H](Cc2ccc(-c3cccc(NC(=O)Nc4cc(C(C)(C)C)on4)c3)cc2)C(=O)O)c(C)c1 [Example 1.209]
30 | 126 °C | O=C(O)C[C@@H](NS(=O)(=O)c1cccc(-c2cccc(NC(=O)NCc3cccnc3)c2)c1)c1ccccc1 [Example 4.92]
31 | 119 °C | CCCNC(=O)Nc1ccc(-c2cccc(CC(NS(=O)(=O)c3c(C)cc(C)cc3C)C(=O)O)c2)cc1 (centres unmarked) [Example 1.203]
32 | > 240 °C | COc1ccc(-c2cccc(Nc3ccccn3)c2)cc1S(=O)(=O)NC(CC(=O)O)c1ccccc1 (centres unmarked) [Example 20.5]
33 | 115 °C | COc1ccc(-c2ccc(NC(=O)NC(C)C)cc2)cc1S(=O)(=O)NC(CC(=O)O)c1ccccc1 (centres unmarked) [Example 4.68]
34 | 112 °C | C[C@@H](NS(=O)(=O)c1cccc(-c2cccc(NC(=O)NCC(F)(F)C(F)(F)F)c2)c1)C(=O)O [Example 4.93]
35 | 151 °C (dec.) | COc1ccc(-c2cccc(NC(=O)N=c3[nH]c4ccccc4[nH]3)c2)cc1S(=O)(=O)N[C@H](CC(=O)O)c1ccccc1 [Example 4.88]
36 | > 240 °C | O=C(O)[C@H](Cc1ccc(-c2cccc(CNc3ccccn3)c2)cc1)NS(=O)(=O)c1c(F)cccc1F [Example 18.12]
37 | > 240 °C | COc1ccc(-c2cccc(NC(=O)Nc3nncs3)c2)cc1S(=O)(=O)NC(CC(=O)O)c1ccccc1 (centres unmarked) [Example 4.106]
38 | 118 °C | Cc1cc(C)c(S(=O)(=O)NC(Cc2cccc(-c3cccc(NC(=O)NCc4ccccn4)c3)c2)C(=O)O)c(C)c1 (centres unmarked) [Example 1.193]
39 | 176 °C | O=C(O)CC(NS(=O)(=O)c1cccc(-c2cccc(NC(=O)NCc3ccccn3)c2)c1)c1cccnc1 (centres unmarked) [Example 4.40]
40 | > 240 °C | COc1ccc(-c2cccc(NC(=O)/N=c3\[nH]c4ccc(C(=O)O)cc4[nH]3)c2)cc1S(=O)(=O)NC(CC(=O)O)c1ccccc1 (centres unmarked) [Example 4.103]
41 | 117 °C | CN(CC(=O)O)S(=O)(=O)c1cccc(-c2cccc(NC(=O)NC3CC3)c2)c1 [Example 6.11]
